This passage reports viability results from article PMC12040169 (PLOS Biology, 2025).

A short description of this series: in vitro. Particulars: human, hela cells, % viability.

`COC(=O)[C@@H](C)NC(=O)[C@@H]1CN(C(=O)c2cccc(F)c2)CCN1C(C)=O` [CBK289620]: the viability at 28.5 h, 10 µM turned out to be 91.3%.

With `COc1cccc(CN2CCN(Cc3ccco3)[C@@H](C)C2)c1` [CBK284265], the viability at 28.5 h, 10 µM is 80.3%.

For `Oc1cccnc1N1CCN(Cc2ccccc2)CC1` [CBK045849], the viability at 28.5 h, 10 µM is 104%.

With `CCCn1c(O)cc(=O)nc1SCC(=O)NCc1ccc(OC)c(OC)c1` [CBK295592], the viability at 28.5 h, 10 µM was determined as 101%.

`CCCCNC(=O)NC(=O)C1CCN(CCCOc2ccccc2)CC1` [CBK035198]: the viability at 28.5 h, 10 µM was 110%.

Turning to `O=C(CNC(=O)c1ccccc1)N/N=C/c1ccc(Br)cc1` [CBK260957], the viability at 28.5 h, 10 µM stood at 103%.

With `CC(=O)Nc1ccc(NC(=O)/C=C/c2ccc(Cl)cc2)cc1` [CBK264766], the viability at 28.5 h, 10 µM turned out to be 116%.

As for `CCn1cc(C(=O)O)c(=O)c2cnc(N3CCN(C(=S)Nc4ccc5c(c4)OCCO5)CC3)nc21` [CBK267895], the viability at 28.5 h, 10 µM is 95.8%.

Consider `O=c1cc(CN2CCN(c3ccccc3)CC2)occ1O` [CBK288392], for which the viability at 28.5 h, 10 µM came to 89%.

Turning to `Cc1cc(-c2ccc(=O)n(CCNC(=O)C3CC3)n2)c(C)o1` [CBK284521], the viability at 28.5 h, 10 µM stood at 93.2%.

For the compound `Cc1ccccc1Cc1cccc(C2CCN(C(=O)c3ccc(F)cc3)CC2)n1` [CBK286140], the viability at 28.5 h, 10 µM is 88.4%.

`O=C(O)CSc1nc2ccc(NC(=O)COc3ccc(Cl)cc3)cc2s1` [CBK299773]: the viability at 28.5 h, 10 µM came to 84.6%.

In the case of `Cc1noc(C2(O)CCN(Cc3sccc3Cl)C2)n1` (centres unmarked) [CBK304863], the viability at 28.5 h, 10 µM was 97.5%.

As for `CN(C(=O)N1CCC(C(=O)NC(c2ccccc2)c2ccco2)CC1)c1ccccc1` (centres unmarked) [CBK059877], the viability at 28.5 h, 10 µM is 89%.

On to `O=C(Nc1cccnc1)c1cc(-c2ccc(Cl)cc2)on1` [CBK116555], for which the viability at 28.5 h, 10 µM is 92.8%.

For the compound `CCOC(=O)C1=C(C)N(CCO)C(=O)NC1c1ccccc1Br` (centres unmarked) [CBK027192], the viability at 28.5 h, 10 µM stood at 104%.

With `CCN(CC)C(=O)c1sc2ncccc2c1NS(=O)(=O)c1cc(Cl)sc1Cl` [CBK050615], the viability at 28.5 h, 10 µM turned out to be 92.2%.

On to `CC(C)(C)c1cc(CCCOC(=O)CNC2CCCCC2)cc(C(C)(C)C)c1O` [CBK261998], for which the viability at 28.5 h, 10 µM amounted to 89.4%.

For the compound `COC(=O)CCc1ccc(S(=O)(=O)N2CCCN(Cc3cccc4c3OCO4)CC2)cc1` [CBK062993], the viability at 28.5 h, 10 µM worked out at 88.8%.

As to `CCNC(=O)N1CC2(CCN(CCCC#N)CC2)c2ccccc21` [CBK136970], the viability at 28.5 h, 10 µM worked out at 111%.

Regarding `O=c1c2ccccc2nc2n1CCN(Cc1ccccc1)CC2` [CBK284790], the viability at 28.5 h, 10 µM stood at 90.2%.

For the compound `O=C(c1ncoc1-c1ccc(F)cc1)N1CCN2CCCCC2C1` (centres unmarked) [CBK282400], the viability at 28.5 h, 10 µM was 96.2%.

Consider `CSCC1CCCN(C(=O)c2cc3ncc(CCO)cn3n2)C1` (centres unmarked) [CBK307256], for which the viability at 28.5 h, 10 µM worked out at 79.6%.

Regarding `COc1ccc(-c2noc([C@@H]3C[C@H](NS(=O)(=O)Cc4ccccc4)CN3C)n2)cc1` [CBK288863], the viability at 28.5 h, 10 µM worked out at 93.2%.

As for `CCOc1ccccc1C(=O)N1CCC(c2cc(C(=O)NC(C)C)c3ccccc3n2)C1` (centres unmarked) [CBK285918], the viability at 28.5 h, 10 µM amounted to 106%.

With `Clc1cc(N2CCCC2)ncn1` [CBK083597], the viability at 28.5 h, 10 µM came out at 99.2%.

Consider `O=C(Cc1ccc(Cl)cc1)NC(=S)Nc1ccccc1O` [CBK263905], for which the viability at 28.5 h, 10 µM stood at 96.6%.

For `COCc1cccc(-c2ncc(OCCN3CCCC3=O)nc2N)c1` [CBK145110], the viability at 28.5 h, 10 µM was determined as 93.6%.

With `O=C(CSc1nc[nH]n1)c1ccc2c(c1)OCCO2` [CBK267360], the viability at 28.5 h, 10 µM is 101%.

Turning to `Cc1nnc(CN2CCOc3ccc(Br)cc3C2)o1` [CBK304079], the viability at 28.5 h, 10 µM is 99%.

As to `Cc1cc(N(C)C)cc(C2CCCN(C(=O)c3cccc(F)c3)C2)n1` (centres unmarked) [CBK282003], the viability at 28.5 h, 10 µM was 95.1%.

For `CN1C(/C=N/O)=C(O)c2ccccc2S1(=O)=O` [CBK010098], the viability at 28.5 h, 10 µM was found to be 94.1%.

With `C=CCN1CCC(C(=O)NC(=O)NCC2COc3ccccc3O2)CC1` (centres unmarked) [CBK051099], the viability at 28.5 h, 10 µM stood at 84.2%.

In the case of `COc1ccc(S(=O)(=O)NCCCN2CCOCC2)c(Cl)c1Cl` [CBK269792], the viability at 28.5 h, 10 µM was found to be 95.3%.

Take `CCCCNS(=O)(=O)c1ccc(OCC(=O)O)cc1` [CBK268550]: the viability at 28.5 h, 10 µM came to 99.1%.

As for `CCOc1ccc(-c2ccnc(N[C@H]3CC[C@@H](N)CC3)n2)cc1C(=O)O` [CBK307104], the viability at 28.5 h, 10 µM was found to be 89.8%.

Take `CCC1=NNC(=O)C(CC(=O)Nc2ccccc2)c2cc(OC)c(OC)cc21` (centres unmarked) [CBK009158]: the viability at 28.5 h, 10 µM was 92.4%.

For the compound `C(#Cc1csc(COc2cncc(N3CCNCC3)n2)c1)c1ccccc1` [CBK200006G], the viability at 28.5 h, 10 µM stood at 92.5%.

`Cc1cn([C@H]2C[C@@H](O)[C@@H](CO)O2)c(N)nc1=O` [CBK201327]: the viability at 28.5 h, 10 µM stood at 100%.

As to `Cc1ccc(/C=C/C(=O)N2CCC3(CC2)CC(=O)c2cc(Cl)ccc2O3)cc1` [CBK156439], the viability at 28.5 h, 10 µM was 95.1%.

As for `CCn1ccc(NC(=O)CC2CCN(Cc3cccc(C(F)(F)F)c3)CC2)n1` [CBK285997], the viability at 28.5 h, 10 µM is 101%.

Regarding `COc1ccc(C(=O)NC(CC(=O)O)c2ccc(OC)cc2)cc1` (centres unmarked) [CBK266188], the viability at 28.5 h, 10 µM stood at 101%.

For `Nc1nonc1NC(=O)c1ccccc1Cl` [CBK019040], the viability at 28.5 h, 10 µM is 99.3%.

With `COc1ccc(-c2nnc(SCC(=O)NN)n2-c2ccccc2)cc1` [CBK263157], the viability at 28.5 h, 10 µM was determined as 87.3%.

Regarding `COc1cncc(-c2ccc(N3CCN(C(=O)c4ccco4)CC3)nc2)c1` [CBK037801], the viability at 28.5 h, 10 µM was found to be 96.7%.

For `CCCN1CC2(CCN(Cc3nccn3C)CC2)CC1C(=O)O` (centres unmarked) [CBK307658], the viability at 28.5 h, 10 µM came out at 83.2%.

Consider `COc1cccc2sc(NC(=O)CCCN(C)C)nc12` [CBK149261], for which the viability at 28.5 h, 10 µM is 93%.

As to `CCn1c(=O)n(CC(=O)NCc2ccccc2F)c2cccnc21` [CBK283890], the viability at 28.5 h, 10 µM is 86.8%.

Turning to `COC(=O)c1sc2ncccc2c1NS(=O)(=O)c1ccc(C(F)(F)F)cc1[N+](=O)[O-]` [CBK049969], the viability at 28.5 h, 10 µM was determined as 95.4%.

With `Nc1cc2cccnc2c(-c2ccc(OC(F)(F)F)cc2)n1` [CBK061926], the viability at 28.5 h, 10 µM turned out to be 90%.

In the case of `CC(CCc1ccccc1)N(C)CCN(C)C` (centres unmarked) [CBK261933], the viability at 28.5 h, 10 µM came out at 80.5%.

In the case of `CCN(CC)c1c(C)nc2ccc(C(=O)Nc3cc(-c4ccccc4)ccc3OC)cn12` [CBK145980], the viability at 28.5 h, 10 µM was found to be 121%.

As to `O=C(Nc1cnc2ccccc2c1)OCCc1cccnc1` [CBK200126], the viability at 28.5 h, 10 µM was determined as 93.5%.

As to `COc1ccc(-c2nc3ccc(C)cc3c(C(=O)NCCc3ccc(S(N)(=O)=O)cc3)c2C)cc1` [CBK267753], the viability at 28.5 h, 10 µM came out at 123%.

On to `CC(C)NC(=O)N1CCN2C(=O)c3cc(-c4ccc(Cl)cc4)ccc3NC(=O)[C@H]2C1` [CBK289596], for which the viability at 28.5 h, 10 µM turned out to be 79.5%.

For `CCC(CO)Nc1cncc(-c2ccc3c(c2)OCO3)n1` (centres unmarked) [CBK065970], the viability at 28.5 h, 10 µM stood at 98.4%.

As for `O=C(CN1C(=O)c2ccccc2C1=O)Nc1sc2c(c1C(=O)NCc1ccco1)CCCC2` [CBK265670], the viability at 28.5 h, 10 µM worked out at 87.9%.

Consider `Cc1ccc(C2(c3ccc(C)cc3)CC2C(=O)Nc2ccccc2[N+](=O)[O-])cc1` (centres unmarked) [CBK263591], for which the viability at 28.5 h, 10 µM amounted to 93.3%.

For the compound `COc1cccc(CN2CCN(S(=O)(=O)c3ccccc3[N+](=O)[O-])CC2)c1OC` [CBK264162], the viability at 28.5 h, 10 µM amounted to 87.4%.

Take `O=C(CSc1ccc(-c2ccc(-n3ccnc3)cc2)nn1)NCc1ccco1` [CBK287717]: the viability at 28.5 h, 10 µM came out at 62.2%.

Consider `Cc1ccc(OCc2cccc3nsnc23)cc1[N+](=O)[O-]` [CBK266063], for which the viability at 28.5 h, 10 µM came out at 98.2%.

Take `CCOC(=O)C(C)n1nc(C)n2c(cc3sccc32)c1=O` (centres unmarked) [CBK283333]: the viability at 28.5 h, 10 µM is 67%.

Consider `CN(C)CCNc1nc(-c2cccnc2)nc2ccccc12` [CBK264471C], for which the viability at 28.5 h, 10 µM was 99.7%.

In the case of `O=C1NCCN1CCOc1nccnc1/C=C/c1ccccc1` [CBK106879], the viability at 28.5 h, 10 µM stood at 96%.

For the compound `O=C(O)CCCN1C(=O)/C(=C\c2ccccn2)SC1=S` [CBK264552], the viability at 28.5 h, 10 µM stood at 92.4%.

Take `CS(=O)(=O)c1ccc(-c2ccc(C(=O)N3CCN(Cc4ccc(F)c(F)c4)CC3)nc2)cc1` [CBK160485]: the viability at 28.5 h, 10 µM turned out to be 87.4%.

Take `Cc1nn(CCC#N)c2nc(-c3ccc(F)cc3)cc(C(=O)O)c12` [CBK296974]: the viability at 28.5 h, 10 µM worked out at 94.7%.

For the compound `COCCNc1nc2c(c(N3CCCC(CO)C3)n1)CCNCC2` (centres unmarked) [CBK307242], the viability at 28.5 h, 10 µM is 111%.

As to `CC1CCN(S(=O)(=O)N2CCCC2c2cccc(F)c2)CC1` (centres unmarked) [CBK281957], the viability at 28.5 h, 10 µM is 93.2%.

Turning to `COc1cc(C)c(Cl)cc1S(=O)(=O)NCCCN1CCOCC1` [CBK269044], the viability at 28.5 h, 10 µM came to 97.1%.

As to `CC(C(=O)N1CCC(c2cc3cccnc3[nH]2)CC1)N1CCCC1=O` (centres unmarked) [CBK282705], the viability at 28.5 h, 10 µM amounted to 105%.

With `Cc1ccc(-c2cc(C(=O)Nc3cccnc3)[nH]n2)c(O)c1C` [CBK288158], the viability at 28.5 h, 10 µM amounted to 93.3%.

Turning to `O=S(=O)(Nc1cccc(O)c1)c1ccc(OC(F)(F)F)cc1` [CBK043822], the viability at 28.5 h, 10 µM is 108%.

Take `Cn1c(=O)c2c(ncn2CCCN)n(C)c1=O` [CBK267707C]: the viability at 28.5 h, 10 µM was found to be 91.8%.

Consider `NC(=O)c1ccc(C(=O)OCc2ccc(-c3ccccc3)cc2)cc1` [CBK297736], for which the viability at 28.5 h, 10 µM came out at 95.7%.

As to `COc1cc(OC)c(NS(=O)(=O)c2cc(C(=O)O)ccc2C)cc1Cl` [CBK296105], the viability at 28.5 h, 10 µM came out at 101%.

As for `Cn1nc(-c2ccc(F)cc2)cc1[C@H]1CN2CC[C@H]1C[C@@H]2CNC(=O)N1CCOCC1` [CBK289108], the viability at 28.5 h, 10 µM came out at 116%.

Turning to `CC(Cc1ccccn1)N(C)C(=O)c1cccc(N2CCCC2=O)c1` (centres unmarked) [CBK282153], the viability at 28.5 h, 10 µM worked out at 104%.

For `CN1C[C@@H](NC(=O)COc2ccccc2)C[C@H]1c1nc(-c2ccncc2)no1` [CBK288855], the viability at 28.5 h, 10 µM came to 90.4%.

Regarding `Cc1ccc(S(=O)(=O)N(C)c2c(C)ccc(S(=O)(=O)N3CCN(C)CC3)c2C)cc1` [CBK265642], the viability at 28.5 h, 10 µM is 96.1%.

What is called viability is a read-out of living cells in per cent, often relative to untreated cells.
